Measurements from the supplement of paper PMC10307832.

Assays:
Test in all cases: relative viability (nuclei count vs DMSO), 5 days (fraction); higher = more cells survive
GW-2580 + Bortezomib = compound: COC1=CC=C(C=C1)COC2=C(C=C(C=C2)CC3=CN=C(N=C3N)N)OC [GW-2580] + CC(C)C[C@H](NC(=O)[C@H](Cc1ccccc1)NC(=O)c1cnccn1)B(O)O [Bortezomib] (partner 0.002 µM)
Outline: (§1)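 For relative viability, nuclei counts in treated wells were divided by those in vehicle wells. Lung cancer cell lines had been pin-tool dosed in 1536-well plates the day after seeding and cultured for 5 days, then fixed and stained in one step (final 0.05% Triton X-100, 1% formaldehyde, 1 ug/ml Hoechst) and imaged at 4×. Doses were one drug alone or a fixed anchor-drug dose plus five library-drug doses (not always all listed) in √10 steps, and values are duplicate-plate medians.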

Fedratinib + Pictilisib = compound: Cc1cnc(Nc2ccc(OCCN3CCCC3)cc2)nc1Nc1cccc(S(=O)(=O)NC(C)(C)C)c1 [Fedratinib] + CS(=O)(=O)N1CCN(Cc2cc3nc(-c4cccc5[nH]ncc45)nc(N4CCOCC4)c3s2)CC1 [Pictilisib] (partner 1 µM)
Outline: as §1

Fedratinib + Tozasertib = compound: Cc1cnc(Nc2ccc(OCCN3CCCC3)cc2)nc1Nc1cccc(S(=O)(=O)NC(C)(C)C)c1 [Fedratinib] + Cc1cc(Nc2cc(N3CCN(C)CC3)nc(Sc3ccc(NC(=O)C4CC4)cc3)n2)n[nH]1 [Tozasertib] (partner 0.1 µM)
Outline: as §1

Fedratinib + Foretinib = compound: Cc1cnc(Nc2ccc(OCCN3CCCC3)cc2)nc1Nc1cccc(S(=O)(=O)NC(C)(C)C)c1 [Fedratinib] + COc1cc2c(Oc3ccc(NC(=O)C4(C(=O)Nc5ccc(F)cc5)CC4)cc3F)ccnc2cc1OCCCN1CCOCC1 [Foretinib] (partner 0.25 µM)
Outline: as §1

Fedratinib + Luminespib = compound: Cc1cnc(Nc2ccc(OCCN3CCCC3)cc2)nc1Nc1cccc(S(=O)(=O)NC(C)(C)C)c1 [Fedratinib] + CCNC(=O)c1noc(-c2cc(C(C)C)c(O)cc2O)c1-c1ccc(CN2CCOCC2)cc1 [Luminespib] (partner 0.01 µM)
Outline: as §1

Fedratinib + Navitoclax = compound: Cc1cnc(Nc2ccc(OCCN3CCCC3)cc2)nc1Nc1cccc(S(=O)(=O)NC(C)(C)C)c1 [Fedratinib] + CC1(C)CCC(c2ccc(Cl)cc2)=C(CN2CCN(c3ccc(C(=O)NS(=O)(=O)c4ccc(N[C@H](CCN5CCOCC5)CSc5ccccc5)c(S(=O)(=O)C(F)(F)F)c4)cc3)CC2)C1 [Navitoclax] (partner 0.5 µM)
Outline: as §1

UMC-11
relative viability (GW-2580 + Bortezomib; first compound 0.08 µM): 0.793 | relative viability (GW-2580 + Bortezomib; first compound 0.8 µM): 0.758 | relative viability (GW-2580 + Bortezomib; first compound 2.53 µM): 0.788 | relative viability (GW-2580 + Bortezomib; first compound 8 µM): 0.603 | relative viability (Fedratinib + Pictilisib; first compound 0.1 µM): 0.672 | relative viability (Fedratinib + Pictilisib; first compound 0.3162 µM): 0.82 | relative viability (Fedratinib + Pictilisib; first compound 1 µM): 0.397 | relative viability (Fedratinib + Tozasertib; first compound 0.1 µM): 0.229 | relative viability (Fedratinib + Tozasertib; first compound 0.3162 µM): 0.228 | relative viability (Fedratinib + Tozasertib; first compound 1 µM): 0.193 | relative viability (Fedratinib + Foretinib; first compound 0.1 µM): 1.1 | relative viability (Fedratinib + Foretinib; first compound 0.3162 µM): 0.958 | relative viability (Fedratinib + Foretinib; first compound 1 µM): 0.706 | relative viability (Fedratinib + Luminespib; first compound 0.1 µM): 0.984 | relative viability (Fedratinib + Luminespib; first compound 0.3162 µM): 0.887 | relative viability (Fedratinib + Luminespib; first compound 1 µM): 0.758 | relative viability (Fedratinib + Navitoclax; first compound 0.1 µM): 0.31 | relative viability (Fedratinib + Navitoclax; first compound 0.3162 µM): 0.275 | relative viability (Fedratinib + Navitoclax; first compound 1 µM): 0.228
